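Five compound concentrations were applied to cells in 96-well plates for 48 hours; endpoints were derived by simple linear interpolation of the resulting dose-response curve. The concentration for full growth arrest is given as TGI.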
Tests used:
Assay in all cases: growth of human tumour cells (NCI), 48 h
[1] = tested on: T-47D breast
[2] = tested on: A498 renal
[3] = tested on: OVCAR-8 ovarian
[4] = tested on: MCF7 breast
[5] = tested on: A549 NSCLC
[6] = tested on: SNB-19 CNS
[7] = tested on: NCI-H23 lung
[8] = tested on: PC-3 prostate
[9] = tested on: UACC-257 melanoma
[10] = tested on: OVCAR-5 ovarian
[11] = tested on: HOP-92 NSCLC
[12] = tested on: OVCAR-4 ovarian
[13] = tested on: SF-539 CNS
[14] = tested on: SK-MEL-2 melanoma
[15] = tested on: UACC-62 melanoma
[16] = tested on: SNB-75 CNS
[17] = tested on: HT29 colon
[18] = tested on: SK-OV-3 ovarian
[19] = tested on: COLO 205 colon
[20] = tested on: BT-549 breast
[21] = tested on: MDA-MB-435
[22] = tested on: NCI-H522 lung
[23] = tested on: CAKI-1 renal
[24] = tested on: HCC-2998 colon
[25] = tested on: HCT-15 colon
[26] = tested on: K-562 leukemia
[27] = tested on: HL-60(TB) leukemia
[28] = tested on: NCI-H226 lung
[29] = tested on: MDA-MB-231 breast
[30] = tested on: HCT-116 colon
[31] = tested on: SW-620 colon
[32] = tested on: SK-MEL-28 melanoma
[33] = tested on: SK-MEL-5 melanoma
[34] = tested on: SF-295 CNS
[35] = tested on: KM12 colon
[36] = tested on: MALME-3M melanoma
[37] = tested on: OVCAR-3 ovarian
[38] = tested on: CCRF-CEM leukemia
[39] = tested on: U251 CNS
[40] = tested on: SR leukemia
[41] = tested on: EKVX NSCLC
[42] = tested on: HOP-62 NSCLC
[43] = tested on: HS 578T breast
[44] = tested on: SF-268 CNS
[45] = tested on: MOLT-4 leukemia
[46] = tested on: DU-145 prostate
[47] = tested on: RXF 393 renal
[48] = tested on: M14 melanoma
[49] = tested on: 786-0 renal
[50] = tested on: LOX IMVI melanoma
[51] = tested on: IGROV1 ovarian
[52] = tested on: TK-10 renal
[53] = tested on: ACHN renal
[54] = tested on: SN12C renal
[55] = tested on: MDA-N
[56] = tested on: NCI-H460 lung
[57] = tested on: RPMI-8226 leukemia
[58] = tested on: NCI/ADR-RES ovarian
[59] = tested on: UO-31 renal

In the case of `O=C1OC(c2ccco2)=N/C1=C\c1ccc(Cl)c(Cl)c1`, the TGI [1] is reported as over 100 µM, the TGI [2] is reported as over 100 µM and the TGI [3] is reported as over 100 µM. It also gave a TGI [4] of over 100 µM, a TGI [5] of over 100 µM and a TGI [6] of over 100 µM. For the same compound, the TGI [7] was over 100 µM, the TGI [8] was over 100 µM and the TGI [9] was over 100 µM. It also gave a TGI [10] of over 100 µM, a TGI [11] of over 100 µM and a TGI [12] of over 100 µM. It also gave a TGI [13] of over 100 µM, a TGI [14] of over 100 µM and a TGI [15] of over 100 µM. It also gave a TGI [16] of over 100 µM, a TGI [17] of over 100 µM and a TGI [18] of over 100 µM. For the same compound, the TGI [19] was over 100 µM, the TGI [20] was over 100 µM and the TGI [21] was over 100 µM. For the same compound, the TGI [22] was over 100 µM, the TGI [23] was over 100 µM and the TGI [24] was over 100 µM. It also gave a TGI [25] of over 100 µM, a TGI [26] of over 100 µM and a TGI [27] of over 100 µM. For the same compound, the TGI [28] was over 100 µM, the TGI [29] was over 100 µM and the TGI [30] was over 100 µM. The TGI [31] was over 100 µM, the TGI [32] was over 100 µM and the TGI [33] was over 100 µM. The TGI [34] was over 100 µM, the TGI [35] was over 100 µM and the TGI [36] was over 100 µM. The TGI [37] was over 100 µM, the TGI [38] was over 100 µM and the TGI [39] was over 100 µM. It also gave a TGI [40] of over 100 µM, a TGI [41] of over 100 µM and a TGI [42] of 94.6 µM. For the same compound, the TGI [43] was over 100 µM, the TGI [44] was over 100 µM and the TGI [45] was over 100 µM. For the same compound, the TGI [46] was over 100 µM, the TGI [47] was over 100 µM and the TGI [48] was over 100 µM. For the same compound, the TGI [49] was over 100 µM, the TGI [50] was over 100 µM and the TGI [51] was over 100 µM. For the same compound, the TGI [52] was over 100 µM, the TGI [53] was over 100 µM and the TGI [54] was over 100 µM. The TGI [55] was over 100 µM, the TGI [56] was over 100 µM and the TGI [57] was over 100 µM.

In the case of `Cn1cc(C(=O)c2nccc3c2cnc2ccccc23)ccc1=O`, the TGI [58] is reported as over 100 µM, the TGI [1] is reported as over 100 µM and the TGI [2] is reported as over 100 µM. The TGI [3] was over 100 µM, the TGI [5] was over 100 µM and the TGI [6] was over 100 µM. It also gave a TGI [7] of over 100 µM, a TGI [8] of over 100 µM and a TGI [9] of over 100 µM. The TGI [10] was over 100 µM, the TGI [11] was over 100 µM and the TGI [12] was over 100 µM. It also gave a TGI [13] of over 100 µM, a TGI [14] of over 100 µM and a TGI [15] of over 100 µM. It also gave a TGI [16] of over 100 µM, a TGI [17] of over 100 µM and a TGI [18] of over 100 µM. It also gave a TGI [59] of over 100 µM, a TGI [19] of over 100 µM and a TGI [21] of over 100 µM. The TGI [23] was over 100 µM, the TGI [24] was over 100 µM and the TGI [25] was over 100 µM. The TGI [26] was over 100 µM, the TGI [27] was over 100 µM and the TGI [28] was over 100 µM. It also gave a TGI [29] of over 100 µM, a TGI [30] of over 100 µM and a TGI [31] of over 100 µM. The TGI [32] was over 100 µM, the TGI [33] was over 100 µM and the TGI [34] was over 100 µM. It also gave a TGI [35] of over 100 µM, a TGI [36] of over 100 µM and a TGI [37] of over 100 µM. It also gave a TGI [38] of over 100 µM, a TGI [39] of over 100 µM and a TGI [40] of 49.7 µM. For the same compound, the TGI [41] was over 100 µM, the TGI [42] was over 100 µM and the TGI [43] was over 100 µM. It also gave a TGI [44] of over 100 µM, a TGI [45] of over 100 µM and a TGI [46] of over 100 µM. The TGI [47] was 8.62 µM, the TGI [48] was over 100 µM and the TGI [49] was over 100 µM. The TGI [50] was over 100 µM, the TGI [52] was over 100 µM and the TGI [53] was over 100 µM. It also gave a TGI [54] of over 100 µM, a TGI [55] of over 100 µM and a TGI [56] of over 100 µM. The TGI [57] was over 100 µM.

`c1ccc(COc2ccc(CC3SCCCS3)cc2)cc1` gave a TGI [1] of over 100 µM, a TGI [3] of over 100 µM and a TGI [4] of over 100 µM. The TGI [5] was over 100 µM, the TGI [6] was over 100 µM and the TGI [8] was over 100 µM. The TGI [9] was over 100 µM, the TGI [11] was 74.3 µM and the TGI [12] was over 100 µM. It also gave a TGI [15] of over 100 µM, a TGI [17] of over 100 µM and a TGI [19] of over 100 µM. For the same compound, the TGI [21] was over 100 µM, the TGI [22] was over 100 µM and the TGI [23] was over 100 µM. For the same compound, the TGI [24] was over 100 µM, the TGI [25] was over 100 µM and the TGI [26] was over 100 µM. It also gave a TGI [27] of over 100 µM, a TGI [29] of over 100 µM and a TGI [30] of over 100 µM. For the same compound, the TGI [31] was over 100 µM, the TGI [32] was over 100 µM and the TGI [33] was over 100 µM. The TGI [34] was over 100 µM, the TGI [36] was over 100 µM and the TGI [37] was over 100 µM. The TGI [38] was over 100 µM, the TGI [40] was over 100 µM and the TGI [41] was over 100 µM. It also gave a TGI [42] of over 100 µM, a TGI [44] of over 100 µM and a TGI [45] of over 100 µM. It also gave a TGI [46] of over 100 µM, a TGI [48] of over 100 µM and a TGI [50] of over 100 µM. It also gave a TGI [51] of over 100 µM, a TGI [52] of over 100 µM and a TGI [53] of over 100 µM. It also gave a TGI [55] of over 100 µM, a TGI [56] of over 100 µM and a TGI [57] of over 100 µM.

`CCN1CC2=C(N=c3s/c(=C\c4ccc(Cl)cc4)c(=O)n3C2c2ccc(Cl)cc2)/C(=C/c2ccc(Cl)cc2)C1` (stereo not drawn) gave a TGI [58] of over 100 µM, a TGI [2] of 64.6 µM and a TGI [3] of over 100 µM. For the same compound, the TGI [4] was over 100 µM, the TGI [5] was over 100 µM and the TGI [6] was over 100 µM. The TGI [7] was over 100 µM, the TGI [8] was over 100 µM and the TGI [9] was over 100 µM. The TGI [10] was over 100 µM, the TGI [12] was over 100 µM and the TGI [14] was over 100 µM. It also gave a TGI [15] of over 100 µM, a TGI [16] of 9.74 µM and a TGI [17] of over 100 µM. The TGI [18] was over 100 µM, the TGI [59] was over 100 µM and the TGI [19] was over 100 µM. For the same compound, the TGI [20] was 85.8 µM, the TGI [21] was over 100 µM and the TGI [22] was over 100 µM. The TGI [23] was over 100 µM, the TGI [24] was over 100 µM and the TGI [25] was over 100 µM. For the same compound, the TGI [26] was over 100 µM, the TGI [27] was over 100 µM and the TGI [28] was over 100 µM. The TGI [29] was over 100 µM, the TGI [30] was over 100 µM and the TGI [31] was over 100 µM. For the same compound, the TGI [32] was over 100 µM, the TGI [33] was over 100 µM and the TGI [34] was over 100 µM. For the same compound, the TGI [35] was over 100 µM, the TGI [36] was over 100 µM and the TGI [37] was over 100 µM. It also gave a TGI [38] of over 100 µM, a TGI [39] of over 100 µM and a TGI [41] of over 100 µM. It also gave a TGI [42] of 90.4 µM, a TGI [43] of over 100 µM and a TGI [44] of 80.6 µM. It also gave a TGI [45] of over 100 µM, a TGI [46] of over 100 µM and a TGI [47] of 15.4 µM. It also gave a TGI [48] of over 100 µM, a TGI [49] of 55.2 µM and a TGI [50] of over 100 µM. The TGI [51] was over 100 µM, the TGI [52] was 62.5 µM and the TGI [53] was over 100 µM. It also gave a TGI [55] of over 100 µM, a TGI [56] of over 100 µM and a TGI [57] of over 100 µM.

Reference: PubChem BioAssay (NCI)
